Activity calls are given as the source filed them. The rule behind the calls is not given here.

The record followed here is ChEMBL document CHEMBL1148662, “Activation of mitogen activated protein kinase (MAPK) during D-galactosamine intoxication in the rat liver” (2006).

The test system of test [1] is Rattus norvegicus. Kind of test: Increase in plasma glutamate oxaloacetate transaminase level in Wistar rat at 1 g/kg, ip after 1.5 hrs relative to control. It is filed as functional.
In test [2] the test system is Rattus norvegicus. The test is described as follows: Increase in hepatic vitamin C level in Wistar rat at 1 g/kg, ip after 24 hrs relative to control. The test is classed as functional.
Test [3] has as its system Rattus norvegicus. Kind of test: Increase in hepatic vitamin C level in Wistar rat at 1 g/kg, ip after 12 hrs relative to control. It is filed as functional.
Test [4] deals with Rattus norvegicus. The test is described as follows: Increase in plasma glutamate oxaloacetate transaminase level in Wistar rat at 1 g/kg, ip after 3 hrs relative to control. The test is classed as functional.
Test [5] has as its system Rattus norvegicus. The test is described as follows: Increase in phosphorylated JNK level in Wistar rat at 1 g/kg, ip after 3 hrs relative to control. The test is classed as functional, organism-based.
The test system of test [6] is Rattus norvegicus. Kind of test: Increase in hepatic vitamin C level in Wistar rat at 1 g/kg, ip after 3 hrs relative to control. The test is classed as functional.
Test [7] relates to Rattus norvegicus. The test is described as follows: Increase in phosphorylated p38 MAPK level in Wistar rat at 1 g/kg, ip after 6 hrs relative to control. The test is classed as functional, organism-based.
The test system of test [8] is Rattus norvegicus. Kind of test: Increase in plasma glutamate pyruvate transaminase level in Wistar rat at 1 g/kg, ip after 6 hrs relative to control. The test is classed as functional.
For test [9], the system named is Rattus norvegicus. The test is described as follows: Increase in hepatic vitamin C level in Wistar rat at 1 g/kg, ip after 1.5 hrs relative to control. The test is classed as functional.
Test [10] relates to Rattus norvegicus. The test is described as follows: Increase in plasma glutamate oxaloacetate transaminase level in Wistar rat at 1 g/kg, ip after 24 hrs relative to control. The test is classed as functional.
The test system of test [11] is Rattus norvegicus. Kind of test: Increase in plasma glutamate pyruvate transaminase level in Wistar rat at 1 g/kg, ip after 12 hrs relative to control. The test is classed as functional.
For test [12], the system named is Rattus norvegicus. The test is described as follows: Increase in plasma glutamate oxaloacetate transaminase level in Wistar rat at 1 g/kg, ip after 6 hrs relative to control. The test is classed as functional.
The subject of test [13] is Rattus norvegicus. Kind of test: Increase in plasma glutamate pyruvate transaminase level in Wistar rat at 1 g/kg, ip after 3 hrs relative to control. The test is classed as functional.
The subject of test [14] is Rattus norvegicus. Kind of test: Increase in plasma glutamate pyruvate transaminase level in Wistar rat at 1 g/kg, ip after 1.5 hrs relative to control. It is filed as functional.
The subject of test [15] is Rattus norvegicus. The test is described as follows: Increase in hepatic vitamin C level in Wistar rat at 1 g/kg, ip after 6 hrs relative to control. The test is classed as functional.
Test [16] has as its system Rattus norvegicus. The test is described as follows: Increase in plasma glutamate oxaloacetate transaminase level in Wistar rat at 1 g/kg, ip after 12 hrs relative to control. It is filed as functional.
The test system of test [17] is Rattus norvegicus. Kind of test: Increase in plasma glutamate pyruvate transaminase level in Wistar rat at 1 g/kg, ip after 24 hrs relative to control. The test is classed as functional.
Test [18] has as its system Rattus norvegicus. The test is described as follows: Increase in phosphorylated ERK level in Wistar rat at 1 g/kg, ip after 3 hrs relative to control. It is filed as functional, organism-based.

As to `N[C@H]1C(O)O[C@H](CO)C(O)[C@@H]1O` (single isomer, unassigned) [GLUCOSAMINE], the Activity in the test with Rattus norvegicus [1] came out at 52.3 nmol/g; with Rattus norvegicus [2], 978 nmol/g; with Rattus norvegicus [3], 1104 nmol/g; in the test on Rattus norvegicus [4], 124 nmol/g; in the test on Rattus norvegicus [6] it was 1137 nmol/g; in the test with Rattus norvegicus [8], 295 nmol/g. Further, the Activity with Rattus norvegicus [9] is given as 1571 nmol/g; with Rattus norvegicus [10], 2560 nmol/g; with Rattus norvegicus [11] it was 426 nmol/g; in the test on Rattus norvegicus [12] it was 517 nmol/g; with Rattus norvegicus [13], 49.7 nmol/g; with Rattus norvegicus [14], 25.8 nmol/g. For the same compound, the results for the Activity with Rattus norvegicus [15], in the test on Rattus norvegicus [16] and in the test with Rattus norvegicus [17] were 1118 nmol/g, 793 nmol/g and 1519 nmol/g, respectively. For the same compound, the result in the test on Rattus norvegicus [5], in the test on Rattus norvegicus [7] and in the test with Rattus norvegicus [18] was Active.
